Measured values published in article PMC11133381, “Necroptosis induced by ruthenium (II) complexes as mitochondrial disruptors” (Cell Death Discovery, 2024).

Key:
[1] = tested on: HT29 cells; assay: Drug combination study (IC50, combination index, CompuSyn); type: cell-based, human; conditions: combinations at 1:1 ratio
Description: In drug combination studies, cells were incubated with TRZ2 combined with 5-fluorouracil (5-FU), oxaliplatin (OXA), and irinotecan (IRI) chemotherapeutics (kindly provided by Hospital Santa Maria, Lisbon, Portugal) at a ratio of 1:1. The effect of combined treatments was evaluated using the CompuSyn software 1.0 (ComboSyn, Inc. and PD Science, LLC). Briefly, the combination index (CI) is a tool to analyze the interaction between drugs allowing to distinguish between synergistic, additive, and antagonistic effects. CI values are calculated considering the concentration of drugs in combination to produce a specific effect (Fraction affected—Fa) and the concentration of drugs to produce that same effect individually. The final CI value is calculated by the average of CI values at Fa 50, 75, 90, and 95%. CI value < 1 indicates synergism while a CI value > 1 indicates antagonism. Fa-CI plot between the levels of different fractions affected against the CI values was also created using CompuSyn software to interpret the type of interactions between TRZ2 and chemotherapeutic drugs. The data points below the additivity line (CI = 1) indicate synergism.

[2] = tested on: HT29 cells; assay: TSZ (TNF-α + Z-VAD + BV6)-induced necroptosis, AK release; type: cell-based, human; conditions: Nec-1 30 μM, GSK872 10 μM, 24 h
Description: As positive control for necroptosis induction, HT29 cells were treated with 20 ng/mL recombinant human TNF-α (#300-01A, PeproTech EC Ltd., London, UK), 10 μM Z-Val-Ala-Asp-fluoromethylketon (Z-VAD-FMK or Z-VAD) pan-caspase inhibitor (#ALX-260-020, Enzo Life Sciences, Farmingdale, NY, USA), and 250 nM BV6 Smac mimetic (#B4653, ApexBio, Houston, USA), L929 cells were treated with 10 ng/mL recombinant murine TNF-α (#315-01 A, PeproTech), and HepG2 cells were treated with 10 μM doxorubicin (DOXO) (#D1515, Sigma-Aldrich). […]
(§1) For evaluation of cell death and viability, cells were plated in 96-well plates at 5 × 10^3 cells/well for next-day treatments. MTS metabolism was evaluated as an indicator of cell viability using CellTiter 96® AQueous non-radioactive cell proliferation assay (Promega, Madison, WI, USA), according to the manufacturer’s instructions. Changes in absorbance were measured at 490 nm using a GloMax®-MultiDetection System (Promega). General cell death was evaluated using the ToxiLight^TM BioAssay Kit (Lonza Walkersville Inc., Walkersville, MD, USA), by determining the quantities of adenylate kinase (AK) released from cells with permeabilized plasma membranes and present in the extracellular medium. The bioluminescent signals were recorded using also the GloMax®-MultiDetection System.

[3] = tested on: HCT116 cells; assay: Antiproliferative MTS assay, HCT116 cells, 72 h; type: cell-based, human; conditions: 72 h compound incubation
Description: as §1
(§2) The primary drug screen was performed using the HCT116 and HT29 cell lines. Cells were seeded in 96-well plates at 5 × 10^3 cells/well and 24 h after, exposed to Ru-TRZ compounds and derivatives at a range of concentrations from 0.012 to 243 μM. Cell proliferation was assessed 72 h later using the MTS assay. As a secondary screen, selected hits were tested using HT29, HepG2, and AML12 wild-type cells seeded in 96-well plates at 5 × 10^3 cells/well. In the following day, cells were exposed to selected compounds at the same range of concentrations for additional 24 h. Cell death was evaluated by the ToxiLight assay. All measurements were performed in duplicate. The half-maximal effective concentration (EC50) and half-maximal inhibitory concentration (IC50) were calculated using the GraphPad Prism Software version 8.0.2 (GraphPad Software, Inc., San Diego, CA, USA) with the log (inhibitor) versus response (variable slope) function.

[4] = tested on: HT29 cells; assay: Antiproliferative MTS assay, HT29 cells, 72 h; type: cell-based, human; conditions: 72 h compound incubation
Description: as §1, §2

[5] = tested on: HT29 cells; assay: Cytotoxicity by AK release (ToxiLight), HT29 cells, 24 h; type: cell-based, human
Description: as §1
(§3) The primary drug screen was performed using the HCT116 and HT29 cell lines. […] Cell proliferation was assessed 72 h later using the MTS assay. […] Cell death was evaluated by the ToxiLight assay. […] The half-maximal effective concentration (EC50) and half-maximal inhibitory concentration (IC50) were calculated using the GraphPad Prism Software version 8.0.2 (GraphPad Software, Inc., San Diego, CA, USA) with the log (inhibitor) versus response (variable slope) function.

[6] = tested on: caspase-3/7 activity in HT29 cells; assay: Caspase-Glo 3/7 assay; type: cell-based, human; conditions: 10 µM, 24 h, p < 0.001
Description: To determine caspase-3/7 activity, HT29 cells were seeded in 96-well plates at 5 ×10^3 cells/well. Twenty-four hours later, cells were incubated with 10 µM Ru-TRZ, or vehicle control, for additional 24 h. Caspase-3 and -7 activation status was measured using the Caspase-Glo® 3/7 Assay (Promega), according to the manufacturer’s instructions. The luminescent signal was recorded using the GloMax®-MultiDetection System (Promega).

[7] = tested on: AML12 cells; assay: Cytotoxicity by AK release (ToxiLight), AML12 hepatocytes, 24 h; type: cell-based, mouse; conditions: 24 h compound incubation
Description: as §1, §3

[8] = tested on: HepG2 cells; assay: Cytotoxicity by AK release (ToxiLight), HepG2 cells, 24 h; type: cell-based, human; conditions: 24 h compound incubation
Description: as §1, §3

[9] = tested on: HT29 cells; assay: Mitochondrial transmembrane potential (JC-1); type: cell-based, human; conditions: 2 h
Description: JC-1 (Sigma-Aldrich) is a cationic dye that represents a reliable fluorescent probe for the assessment of mitochondrial transmembrane potential (ΔΨm). […] HT29 or AML12 cells were plated on a 96-well plate at 5 × 10^3 cells/well and on the next day treated with Ru-TRZ compounds (1 and 5 µM) for 2 h. Carbonyl cyanide m-chlorophenyl hydrazone (CCCP), a mitochondrial depolarizing agent, was used as positive control (200 µM; 4 h). Emitted fluorescence was measured at 530 nm and 590 nm using the GloMax®-MultiDetection System (Promega) and the ratio 590/530 emission intensity was calculated.

[10] = tested on: HT29 cells; assay: Mitochondrial ROS production (MitoSOX Red); type: cell-based, human; conditions: 10 µM, 15 min
Description: Mitochondrial superoxide abundance was quantified by fluorometric quantification. Briefly, HT29 or AML12 cells were plated on a 96-well plate at 5 ×10^3 cells/well and on the next day treated with 10 µM Ru-TRZ, or vehicle control, for additional 15 min. MitoSOX™ Red (Invitrogen, Thermo Fisher Scientific) diluted 1:1000 in HBSS was added (100 μL per well) and incubated at 37 °C in a CO2 incubator for 10 min. Cells were then washed with PBS to remove the excess of dye and fluorescence intensity was measured using a Varioskan™ LUX multimode microplate reader (Thermo Scientific) with excitation and emission wavelengths of 510 and 580 nm, respectively. Fluorescence values were normalized by the cell mass content.

[11] = Homo sapiens, HT-29, 24 h incubation

O=c1[nH]cc(F)c(=O)[nH]1 [5-FU, 5-fluorouracil]
IC50 [1, 11]: 30000 nM

CC(C)S(=O)(=O)c1ccc2nccc(Nc3ccc4scnc4c3)c2c1 [GSK872]
Effect on TSZ-induced cell damage (AK release) [2]: significantly decreased TSZ-induced AK release

CCc1c2c(nc3ccc(OC(=O)N4CCC(N5CCCCC5)CC4)cc13)-c1cc3c(c(=O)n1C2)COC(=O)[C@]3(O)CC [IRI, irinotecan]
IC50 [1, 11]: 44000 nM

CN1C(=O)C(Cc2c[nH]c3ccccc23)NC1=S (centres unmarked) [Nec-1, Necrostatin-1]
Effect on TSZ-induced cell damage (AK release) [2]: rescued

O=C1[O][Pt]2([NH][C@@H]3CCCC[C@H]3[NH]2)[O]C1=O [OX, oxaliplatin]
IC50 ([1]; 24 h incubation): 10800 nM

CN(N=Nc1ccc(C#N)cc1)C(=O)c1ccccc1.O=S(=O)([O-])C(F)(F)F.[Ru+2].c1cc[cH-]c1.c1ccc(P(CCP(c2ccccc2)c2ccccc2)c2ccccc2)cc1 [TRZ4]
IC50 [3]: 0.55 µM | IC50 [4]: 0.23 µM

CN(C)N=Nc1ccc(C#N)cc1.O=S(=O)([O-])C(F)(F)F.c1cc[cH-]c1.c1ccc([P]2(c3ccccc3)CC[P](c3ccccc3)(c3ccccc3)[Ru+2]2)cc1 [TRZ5]
IC50 [3]: 0.22 µM | IC50 [4]: 0.31 µM

N#Cc1ccc(NC(=O)CCOCCOCCOCCN)cc1.O=S(=O)([O-])C(F)(F)F.[Ru+2].c1cc[cH-]c1.c1ccc(P(CCP(c2ccccc2)c2ccccc2)c2ccccc2)cc1 [TRZ6]
IC50 [3]: 2.42 µM | IC50 [4]: 3.54 µM

CCCC(=O)Nc1ccc(C#N)cc1.O=S(=O)([O-])C(F)(F)F.c1cc[cH-]c1.c1ccc([P]2(c3ccccc3)CC[P](c3ccccc3)(c3ccccc3)[Ru+2]2)cc1 [TRZ7]
Cell death (AK release) ([5]; 10 µM, 24 h, partially reverted by Z-VAD, Nec-1 and GSK872): high levels of cell death | EC50 ([5]; AK release, 24 h compound incubation): 15200 nM | Increase in caspase-3/7 activity [6]: up to 4 fold | IC50 [3]: 0.55 µM | EC50 [7]: 40200 nM | EC50 [8]: 16800 nM | Loss of ΔΨm ([9]; 1 µM, JC-1, p < 0.05): significant loss of ΔΨm | Loss of ΔΨm ([9]; 5 µM, JC-1, CCCP 200 µM 4 h as positive control): loss of ΔΨm similar to the one induced by CCCP | IC50 [4]: 0.36 µM | Increase of mitochondrial ROS [10]: ~3 fold

N#Cc1ccc(NC(=O)COCCOCCOCCN=[N+]=[N-])cc1.O=S(=O)([O-])C(F)(F)F.[Ru+2].c1cc[cH-]c1.c1ccc(P(CCP(c2ccccc2)c2ccccc2)c2ccccc2)cc1 [TRZ8]
IC50 [3]: 0.46 µM | IC50 [4]: 0.27 µM
